Source: patent publication US20020019536A1, “NEW URETHANES, THIO AND DITHIO ANALOGUES AND THEIR USE AS INHIBITORS OF CHOLESTEROL BIOSYNTHESIS” (priority 1997, published 2002)
Values belong to the compound of their own block, whether it stands above or below them.

Columns and labels:
[1] = tested on: 14C-acetate incorporation into the steroids which can be precipitated with digitonin (cholesterol biosynthesis); test: Inhibition of 14C-acetate incorporation into the steroids which can be precipitated with digitonin; type: cell-based; details: for IC50: 14C-acetate incorporation
Text: I. Measuring the Inhibition of ^14C-acetate incorporation into the steroids which can be precipitated with digitonin: The inhibitory effect was investigated using the method described in J. Lipid. Res. 37, 148-157 [1996] at test concentrations of 10^−8 and 10^−9 mol/l.

[2] = molecular target: T1, 2,3-epoxysqualene-lanosterol-cyclase (Rattus norvegicus, UniProt P48450); test: In-vivo activity in the rat after oral administration: 2,3-epoxysqualene level in the liver
T1 construct: Measuring the in-vivo Activity in the Rat after Oral Administration; from tissue; host or cells: living rat; 2,3-epoxysqualene measured in the liver
T1 sequence (P48450 1-733): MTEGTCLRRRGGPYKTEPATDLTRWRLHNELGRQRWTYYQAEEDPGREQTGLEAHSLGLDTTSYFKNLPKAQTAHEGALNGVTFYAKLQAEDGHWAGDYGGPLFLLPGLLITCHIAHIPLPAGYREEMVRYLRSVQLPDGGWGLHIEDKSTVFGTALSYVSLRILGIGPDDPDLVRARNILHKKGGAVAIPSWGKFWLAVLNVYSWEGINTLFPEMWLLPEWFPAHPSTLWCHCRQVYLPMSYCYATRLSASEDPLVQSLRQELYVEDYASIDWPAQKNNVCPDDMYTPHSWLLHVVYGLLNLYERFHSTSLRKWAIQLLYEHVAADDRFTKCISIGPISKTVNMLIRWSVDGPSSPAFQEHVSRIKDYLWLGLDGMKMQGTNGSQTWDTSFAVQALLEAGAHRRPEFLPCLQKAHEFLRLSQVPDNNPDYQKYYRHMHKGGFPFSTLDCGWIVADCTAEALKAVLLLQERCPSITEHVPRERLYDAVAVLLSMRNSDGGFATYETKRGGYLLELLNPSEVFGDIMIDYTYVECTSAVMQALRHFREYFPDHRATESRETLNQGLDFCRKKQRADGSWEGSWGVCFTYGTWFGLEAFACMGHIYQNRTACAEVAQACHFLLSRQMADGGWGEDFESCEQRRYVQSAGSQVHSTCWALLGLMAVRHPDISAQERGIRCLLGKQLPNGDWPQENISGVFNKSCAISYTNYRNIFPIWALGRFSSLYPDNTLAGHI
Procedure: II. Measuring the in-vivo Activity in the Rat after Oral Administration
Inhibiting the enzyme 2,3-epoxysqualene-lanosterol-cyclase causes an increase in the 2,3-epoxisqualene levels in the liver and plasma. The quantity of 2,3-epoxysqualene formed therefore serves as a direct measurement of the potency on the animal as a whole. The amounts were determined using the method described in J. Lipid. Res. 38, 564-575, [1997] at t=3 or 8 hours after administration of the substance in concentrations of c=0.01, 0.03, 0.1, 0.3 and 1.0 mg/kg. Table 3 which follows gives the results obtained for the abovementioned substances A, B, C, E, G, H, O and R by way of example.
In the control animals there were no measurable 2,3-epoxisqualene levels under these conditions.

Asp. niger ATCC 16404 = test: Fungistatic activity, series dilution test; type: cell-based; details: Sabouraud broth, 2 to 4 days at 26° C.
Procedure: (§1) V. Determining the Fungistatic Activity
(§2) The fungistatic activity was determined by the series dilution test (microtitre system). Sabouraud broth was used as the nutrient medium. The inoculum amounted to about 10^4 to 10^5 CFU/ml (CFU=colony-forming units); the incubation period was 2 to 4 days at 26° C.
(§3) The lowest concentration which allows no visible growth (minimum inhibitory concentration MIC) was determined.
(§4) The abovementioned compounds B, E, G, I, K, L, N, Q and R were tested. The MIC is given in μg/ml.

[3] = tested on: Cand. albicans ATCC 10231; test: Fungistatic activity, series dilution test; type: cell-based; details: Sabouraud broth, 2 to 4 days at 26° C.
Procedure: as §1, §2, §3, §4

Pen. notatum CBS 19746 = test: Fungistatic activity, series dilution test; type: cell-based; details: Sabouraud broth, 2 to 4 days at 26° C.
Procedure: as §1, §2, §3, §4

Rhod. rubra 49 = test: Fungistatic activity, series dilution test; type: cell-based; details: Sabouraud broth, 2 to 4 days at 26° C.
Procedure: as §1, §2, §3, §4

[4] = tested on: Sacch. carisbergensis ATCC 9080; test: Fungistatic activity, series dilution test; type: cell-based; details: Sabouraud broth, 2 to 4 days at 26° C.
Procedure: as §1, §2, §3, §4

[5] = tested on: Trich. mentagrophytes ATCC 9129; test: Fungistatic activity, series dilution test; type: cell-based; details: Sabouraud broth, 2 to 4 days at 26° C.
Procedure: as §1, §2, §3, §4

[6] = Lipid reduction in the normolipaemic golden hamster; type: in vivo; details: dose 5.87 mg/kg/day, compared with control group
Procedure: III. Lipid Reduction in the Normolipaemic Golden Hamster This was determined using the method described in J. Lipid. Res. 38, 564-575, (1997). At the end of the experiment the total cholesterol, β-lipoprotein-cholesterol and HDL-cholesterol were determined and compared with the values of a control group which were fed without any test substance. The lipid-lowering activity of the abovementioned compounds E, G and I was tested.

[7] = 0.01 mg/kg oral, 3 h after administration
[8] = 0.01 mg/kg oral, 8 h after administration
[9] = 0.03 mg/kg oral, 3 h after administration
[10] = 0.03 mg/kg oral, 8 h after administration
[11] = 0.1 mg/kg oral, 3 h after administration
[12] = 0.1 mg/kg oral, 8 h after administration
[13] = 0.3 mg/kg oral, 3 h after administration
[14] = 0.3 mg/kg oral, 8 h after administration
[15] = 1.0 mg/kg oral, 3 h after administration
[16] = 1.0 mg/kg oral, 8 h after administration

- 2,3-epoxysqualene concentration in the liver (rat) [2, 7]: 2.9 µg/g
- 2,3-epoxysqualene concentration in the liver (rat) [2, 8]: 31.3 µg/g
- 2,3-epoxysqualene concentration in the liver (rat) [2, 9]: 25.7 µg/g
- 2,3-epoxysqualene concentration in the liver (rat) [2, 10]: 25.3 µg/g
- 2,3-epoxysqualene concentration in the liver (rat) [2, 11]: 117.7 µg/g
- 2,3-epoxysqualene concentration in the liver (rat) [2, 12]: 202.3 µg/g
- 2,3-epoxysqualene concentration in the liver (rat) [2, 13]: 70.3 µg/g
- 2,3-epoxysqualene concentration in the liver (rat) [2, 14]: 112.6 µg/g
SMILES: CN(C)Cc1ccc([C@H]2CC[C@H](N(C)C(=O)Sc3ccc(Cl)cc3)CC2)cc1.Cl [H, trans-S-(4-chlorophenyl)-N-4-[4-(dimethylaminomethyl)-phenyl]cyclohexyl-N-methylthiocarbamate-hydrochloride]
- IC50 [1]: 0.5 nM
- percentage inhibition of 14C-acetate incorporation ([1]; test concentration 10^−8 mol/l): −87%
- percentage inhibition of 14C-acetate incorporation ([1]; test concentration 10^−9 mol/l): −65%

SMILES: CN(C(=O)Oc1ccc(Cl)cc1)[C@H]1CC[C@H](c2ccc(CN3CCCC3)cc2)CC1.Cl [K, trans-O-(4-chlorophenyl)-N-methyl-N-4-[4-(pyrrolidinomethyl)phenyl]cyclohexylcarbamate-hydrochloride]
- percentage inhibition of 14C-acetate incorporation ([1]; test concentration 10^−8 mol/l): −81%
- percentage inhibition of 14C-acetate incorporation ([1]; test concentration 10^−9 mol/l): −53%
- MIC Asp. (Asp. niger ATCC 16404): 16 µg/mL
- MIC Cand. [3]: 64 µg/mL
- MIC Pen. (Pen. notatum CBS 19746): 8 µg/mL
- MIC Rhod. (Rhod. rubra 49): 32 µg/mL
- MIC Sacc. [4]: 128 µg/mL
- MIC Trich. [5]: 2 µg/mL

SMILES: CN(C)Cc1ccc([C@H]2CC[C@H](N(C)C(=S)SCc3ccc(Cl)cc3)CC2)cc1.Cl [D, trans-S-(4-chlorobenzyl)-N-4-[4-(dimethylaminomethyl)-phenyl]cyclohexyl-N-methyldithiocarbamate-hydrochloride]
- percentage inhibition of 14C-acetate incorporation ([1]; test concentration 10^−8 mol/l): −85%
- percentage inhibition of 14C-acetate incorporation ([1]; test concentration 10^−9 mol/l): −51%

SMILES: Cc1ccc(OC(=S)N(C)[C@H]2CC[C@H](c3ccc(CN(C)C)cc3)CC2)cc1.Cl [P, trans-N-4-[4-(dimethylaminomethyl)phenyl]cyclohexyl-N-methyl-O-(4-methylphenyl)thiocarbamate-hydrochloride]
- percentage inhibition of 14C-acetate incorporation ([1]; test concentration 10^−8 mol/l): −83%
- percentage inhibition of 14C-acetate incorporation ([1]; test concentration 10^−9 mol/l): −60%

- MIC Asp. (Asp. niger ATCC 16404): 128 µg/mL
- MIC Cand. [3]: 16 µg/mL
- MIC Pen. (Pen. notatum CBS 19746): 64 µg/mL
- MIC Rhod. (Rhod. rubra 49): 8 µg/mL
- MIC Sacc. [4]: 32 µg/mL
- MIC Trich. [5]: 2 µg/mL
SMILES: Cc1ccc(OC(=S)N(C)[C@H]2CC[C@H](c3ccc(CN4CCCCC4)cc3)CC2)cc1.Cl [Q, trans-N-Methyl-O-(4-methylphenyl)-N-4-[4-(piperidinomethyl)phenyl]cyclohexylthiocarbamate-hydrochloride]
- percentage inhibition of 14C-acetate incorporation ([1]; test concentration 10^−8 mol/l): −79%
- percentage inhibition of 14C-acetate incorporation ([1]; test concentration 10^−9 mol/l): −51%

- 2,3-epoxysqualene concentration in the liver (rat) [2, 7]: 0.0 µg/g
- 2,3-epoxysqualene concentration in the liver (rat) [2, 8]: 14.6 µg/g
- 2,3-epoxysqualene concentration in the liver (rat) [2, 9]: 11.8 µg/g
- 2,3-epoxysqualene concentration in the liver (rat) [2, 10]: 66.0 µg/g
- 2,3-epoxysqualene concentration in the liver (rat) [2, 11]: 62.6 µg/g
- 2,3-epoxysqualene concentration in the liver (rat) [2, 12]: 312.5 µg/g
- 2,3-epoxysqualene concentration in the liver (rat) [2, 15]: 136.5 µg/g
- 2,3-epoxysqualene concentration in the liver (rat) [2, 16]: 291.9 µg/g
SMILES: CN(C)Cc1ccc([C@H]2CC[C@H](N(C)C(=S)Sc3ccc(Cl)cc3)CC2)cc1 [A, trans-S-(4-chlorophenyl)-N-4-[4-(dimethylaminomethyl)-phenyl]cyclohexyl-N-methyldithiocarbamate]
- percentage inhibition of 14C-acetate incorporation ([1]; test concentration 10^−8 mol/l): −85%
- percentage inhibition of 14C-acetate incorporation ([1]; test concentration 10^−9 mol/l): −39%

SMILES: Cc1ccc(CC(=O)O[C@H]2CC[C@H](c3ccc(CN(C)C)cc3)CC2)cc1 [W, trans-O-(p-tolylacetyl)-4-(4-dimethylaminomethylphenyl)-cyclohexanol, reference compound]
- IC50 [1]: 9.6 nM
- inhibition at 0.01 µM ([1]; test concentration 10^−8 mol/l, read-out: percentage inhibition of 14C-acetate incorporation): 72%
- inhibition at 0.001 µM ([1]; test concentration 10^−9 mol/l, read-out: percentage inhibition of 14C-acetate incorporation): 21%

SMILES: Cc1ccc(OC(=O)N(C)[C@H]2CC[C@H](c3ccc(CN(C)C)cc3)CC2)cc1.Cl [O, trans-N-4-[4-(dimethylaminomethyl)phenyl]cyclohexyl-N-methyl-O-(4-methylphenyl)carbamate-hydrochloride]
- IC50 [1]: 0.8 nM
- percentage inhibition of 14C-acetate incorporation ([1]; test concentration 10^−8 mol/l): −83%
- percentage inhibition of 14C-acetate incorporation ([1]; test concentration 10^−9 mol/l): −57%
- 2,3-epoxysqualene concentration in the liver (rat) [2, 11]: 53.4 µg/g
- 2,3-epoxysqualene concentration in the liver (rat) [2, 12]: 94.3 µg/g
- 2,3-epoxysqualene concentration in the liver (rat) [2, 13]: 72.6 µg/g
- 2,3-epoxysqualene concentration in the liver (rat) [2, 14]: 113.2 µg/g
- 2,3-epoxysqualene concentration in the liver (rat) [2, 15]: 117.9 µg/g
- 2,3-epoxysqualene concentration in the liver (rat) [2, 16]: 224.8 µg/g
- HDL-cholesterol [6]: −12.7%
- Total cholesterol [6]: −17.3%
- β-Lipoprotein-cholesterol [6]: −22.5%

- 2,3-epoxysqualene concentration in the liver (rat) [2, 7]: 0.0 µg/g
- 2,3-epoxysqualene concentration in the liver (rat) [2, 8]: 84.8 µg/g
- 2,3-epoxysqualene concentration in the liver (rat) [2, 9]: 33.1 µg/g
- 2,3-epoxysqualene concentration in the liver (rat) [2, 10]: 57.8 µg/g
- 2,3-epoxysqualene concentration in the liver (rat) [2, 11]: 47.0 µg/g
- 2,3-epoxysqualene concentration in the liver (rat) [2, 12]: 133.1 µg/g
- 2,3-epoxysqualene concentration in the liver (rat) [2, 13]: 77.8 µg/g
- 2,3-epoxysqualene concentration in the liver (rat) [2, 14]: 196.5 µg/g
- 2,3-epoxysqualene concentration in the liver (rat) [2, 15]: 68.1 µg/g
- 2,3-epoxysqualene concentration in the liver (rat) [2, 16]: 243.9 µg/g
SMILES: CN(C)Cc1ccc([C@H]2CC[C@H](N(C)C(=S)SCc3ccc(F)cc3)CC2)cc1.Cl [C, trans-S-(4-fluorobenzyl)-N-4-[4-(dimethylaminomethyl)-phenyl]cyclohexyl-N-methyldithiocarbamate-hydrochloride]
- percentage inhibition of 14C-acetate incorporation ([1]; test concentration 10^−8 mol/l): −87%
- percentage inhibition of 14C-acetate incorporation ([1]; test concentration 10^−9 mol/l): −52%

SMILES: CN(C)Cc1ccc([C@H]2CC[C@@H](N(C)C(=S)SCc3ccccc3)CC2)cc1.Cl [F, cis-S-benzyl-N-4-[4-(dimethylaminomethyl)phenyl]-cyclohexyl-N-methyldithiocarbamate-hydrochloride]
- percentage inhibition of 14C-acetate incorporation ([1]; test concentration 10^−8 mol/l): −83%
- percentage inhibition of 14C-acetate incorporation ([1]; test concentration 10^−9 mol/l): −40%

SMILES: C=CCN(C)Cc1ccc([C@H]2CC[C@H](N(C)C(=O)Oc3ccc(Cl)cc3)CC2)cc1 [M, trans-O-(4-chlorophenyl)-N-methyl-N-4-[4-(N-methyl-N-allylaminomethyl)phenyl]cyclohexylcarbamate]
- percentage inhibition of 14C-acetate incorporation ([1]; test concentration 10^−8 mol/l): −93%
- percentage inhibition of 14C-acetate incorporation ([1]; test concentration 10^−9 mol/l): −74%

SMILES: CN(C)Cc1ccc([C@H]2CC[C@H](N(C)C(=O)c3ccc(Cl)cc3)CC2)cc1 [V, reference compound]
- IC50 [1]: 3.8 nM
- percentage inhibition of 14C-acetate incorporation ([1]; test concentration 10^−8 mol/l): −59%
- percentage inhibition of 14C-acetate incorporation ([1]; test concentration 10^−9 mol/l): −23%
